Assay results published in US11578097B2, “Tetrazole derivatives of bile acids as FXR/TGR5 agonists and methods of use thereof” (Enanta Pharmaceuticals, Inc., priority 2014, dated 2023).

Biological target: T1, human FXR (NR1H4) (Homo sapiens, UniProt Q96RI1)
T1 construct: host or cells: CHO (Chinese hamster ovary) cells
T1 sequence (Q96RI1 1-486): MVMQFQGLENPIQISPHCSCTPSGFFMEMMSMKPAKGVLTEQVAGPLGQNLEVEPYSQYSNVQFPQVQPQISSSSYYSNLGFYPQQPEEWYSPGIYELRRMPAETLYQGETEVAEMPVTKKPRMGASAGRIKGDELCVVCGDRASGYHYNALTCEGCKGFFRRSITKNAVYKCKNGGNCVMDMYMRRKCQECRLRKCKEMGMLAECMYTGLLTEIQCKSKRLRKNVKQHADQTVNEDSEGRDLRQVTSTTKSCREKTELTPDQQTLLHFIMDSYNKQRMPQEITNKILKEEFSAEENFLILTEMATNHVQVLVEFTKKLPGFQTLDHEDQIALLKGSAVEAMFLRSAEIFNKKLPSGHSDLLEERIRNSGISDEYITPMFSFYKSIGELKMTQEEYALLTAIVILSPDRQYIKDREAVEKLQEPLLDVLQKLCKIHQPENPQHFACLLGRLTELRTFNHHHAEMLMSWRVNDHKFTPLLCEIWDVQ
Assay: Human FXR (NR1H4) reporter assay (Gal4 promoter driven transactivation, luciferase)
Assay type: cell-based
Details: for Efficacy (%): normalized to CDCA set as 100%
Excerpt: Assays Human FXR (NR1H4) Assay Determination of a ligand mediated Gal4 promoter driven transactivation to quantify ligand binding mediated activation of FXR. FXR Reporter Assay kit purchased from Indigo Bioscience (Catalogue number: IB00601) to determine the potency and efficacy of compound developed by Enanta that can induce FXR activation. The principal application of this reporter assay system is to quantify functional activity of human FXR. The assay utilizes non-human mammalian cells, CHO (Chinese hamster ovary) cells engineered to express human NR1H4 protein (referred to as FXR). Reporter cells also incorporate the cDNA encoding beetle luciferase which catalyzes the substrates and yields photon emission. Luminescence intensity of the reaction is quantified using a plate-reading luminometer, Envision. Reporter Cells include the luciferase reporter gene functionally linked to an FXR responsive promoter. Thus, quantifying changes in luciferase expression in the treated reporter cells provides a sensitive surrogate measure of the changes in FXR activity. […] The assay is according to the manufacturer's instructions. In brief, the assay was performed in white, 96 well plates using final volume of 100 ul containing cells with different doses of compounds. Retrieve Reporter Cells from −80° C. storage. Perform a rapid thaw of the frozen cells by transferring a 10 ml volume of 37° C. cell recovery medium into the tube of frozen cells. Recap the tube of Reporter Cells and immediately place it in a 37° C. water bath for 5-10 minutes. Retrieve the tube of Reporter Cell Suspension from the water bath. Sanitize the outside surface of the tube with a 70% alcohol swab, and then transfer it into the cell culture hood. Dispense 90 μl of cell suspension into each well of the 96-well Assay Plate. Transfer the plate into 37° C. incubator, allowing the cells adherent to the bottom of the well. Dilute compounds in Dilution Plate (DP), and administrate to cells at Assay Plate (AP). DMSO content of the samples was kept at 0.2%. Cells were incubated for additional 22 hours before luciferase activities were measured. Thirty minutes before intending to quantify FXR activity, remove Detection Substrate and Detection Buffer from the refrigerator and place them in a low-light area so that they may equilibrate to room temperature. Remove the plate's lid and discard all media contents by ejecting it into an appropriate waste container. Gently tap the inverted plate onto a clean absorbent paper towel to remove residual droplets. Cells will remain tightly adhered to well bottoms. Add 100 μl of luciferase detection reagent to each well of the assay plate. Allow the assay plate to rest at room temperature for at least 5 minutes following the addition of LDR. Set the instrument (Envision) to perform a single 5 second “plate shake” prior to reading the first assay well. Read time may be 0.5 second (500 mSec) per well.

SMILES | EC50 | Efficacy (%)
CC[C@H]1[C@@H](O)[C@@H]2[C@H](CC[C@]3(C)[C@@H]([C@H](C)CCc4nnn[nH]4)CC[C@@H]23)[C@@]2(C)CC[C@@H](O)C[C@@H]12 [Example 1] | 1000 to 10000 nM | 397%
CC[C@H]1[C@@H](O)[C@@H]2[C@H](CC[C@]3(C)[C@@H]([C@H](C)CCCc4nnn[nH]4)CC[C@@H]23)[C@@]2(C)CC[C@@H](O)C[C@@H]12 [Example 2] | 100 to 1000 nM | 354%
CC[C@H]1[C@@H](O)[C@@H]2[C@H](CC[C@]3(C)[C@@H]([C@H](C)Cc4nnn[nH]4)CC[C@@H]23)[C@@]2(C)CC[C@@H](O)C[C@@H]12 [Example 3] | 1000 to 10000 nM | 192%
CC[C@H]1[C@@H](O)[C@@H]2[C@H](CC[C@]3(C)[C@@H]([C@H](C)CCCCc4nn[nH]n4)CC[C@@H]23)[C@@]2(C)CC[C@@H](O)C[C@@H]12 [Example 4] | 100 to 1000 nM | 234%
CC[C@H]1[C@@H](O)[C@@H]2[C@H](CC[C@]3(C)[C@@H]([C@H](C)CCCCCc4nn[nH]n4)CC[C@@H]23)[C@@]2(C)CC[C@@H](O)C[C@@H]12 [Example 5] | 100 to 1000 nM | 191%
CC[C@H]1[C@@H](O)[C@@H]2[C@H](CC[C@]3(C)[C@@H]([C@H](C)CCC(=O)Nc4nnn[nH]4)CC[C@@H]23)[C@@]2(C)CC[C@@H](O)C[C@@H]12 [Example 6] | 1000 to 10000 nM | 105%
